31 compounds from patent US10391070B2, “Compositions and methods for treating neurological diseases or injury” (MUSC FOUNDATION FOR RESEARCH DEVELOPMENT, priority 2012, dated 2019) can be followed below.

What all share (assay type): cell-based, mouse
Data set [1] concerns HT22 cells. Description: In vitro neuroprotective activity against glutamate-induced cell death (MTS cell viability). The note with it: Mus musculus, read-out: Protection PC50. The procedure:
(§1) The HT22 neuronal cell line is a subclone of HT4, derived from the mouse hippocampus (Morimoto and Koshland, 1990). […] HT22 cells were used. The cells were grown in Dulbecco's Modified Eagle's medium (DMEM/high glucose) supplemented with 10% fetal bovine serum (Hyclone) and 5 mL Antibiotic-Antimycotic (Amphotericin B, Penicillin, and Streptomycin; Invitrogen) at 37° C. in 5% CO2.
(§2) Cell viability was assessed by the ability of the viable cells to metabolize 3-(4,5-dimethylthiazol-2-yl)-5-(3-carboxymethoxyphenyl)-2(4-sulfophenyl)2-H-tetrazolium, inner salt (MTS), as described previously (Cory et al., 1991). The metabolism of tetrazolium salts is often used to measure cellular proliferation, but in the system used here, it has been previously shown to correlate well with cell viability as determined by trypan blue exclusion and colony-forming assays (Davis and Maher, 1994). Briefly, HT-22 cells were seeded onto 96-well plates at 5.0×10^3 cells per well in 75 μL of medium and maintained at 37° C. in 5% CO2 overnight prior to the initiation of experimental treatments. For glutamate toxicity testing, cells were subsequently treated with 25 μL of medium containing glutamate (monosodium glutamate, Sigma, 1 M stock concentration in media, to achieve a final concentration of 10 mM) plus inhibitors (stock in DMSO) and maintained at 37° C. in 5% CO2. For t-BuOOH toxicity testing, cells were subsequently treated with 25 μL of medium containing t-BuOOH (Sigma, 10 mM stock concentration, to achieve a final concentration of 50 μM) plus inhibitors (stock in DMSO) and maintained at 37° C. in 5% CO2 for 3 hours, after which the media was removed, cells washed gently with HBSS, the media replaced with standard culture media, and the cells returned to incubation at 37° C. in 5% CO2. For both glutamate and t-BuOOH treatments, 10 μl of MTS solution was added to each well 24 hrs after initial treatment, and the cells were maintained in growth medium for 2 h at 37° C. Absorbance at 490 nm was subsequently measured by a SpectraMax 190 plate reader (Molecular Devices). The growth medium without cells in the presence of MTS solution was used as solution background and untreated cells were considered the controls. Cell viability was calculated as a percentage compared with untreated controls. EC50 determinations were based on 12-point titrations using GraphPad Prism, and each experiment was repeated at least four times. Morphology of HT22 cells following treatments was determined by phase-contrast microscopy. Digital images of cells grown on cell culture plates were captured at 10× magnification.
The neuroprotective properties of VK and its derivatives were estimated through their protective effects against cell death in mouse neuronal HT22 cells induced by exposure to high levels of glutamate, which recapitulates a hallmark of the extracellular environment found in several neurodegenerative diseases and CNS injuries and is a well established model of neuronal oxidative stress. This investigation began by comparing the relative abilities of the two predominant naturally occurring forms of VK, VK1 and VK2, to prevent oxidative cell death. […] Several 1,4-naphthoquinones with various substitutions at the 2′ and 3′ positions were tested to determine the minimum structural requirement of the system and what the optimum scaffold for future developmental efforts and biological validation would be (FIG. 1B and Table 1). […] Substitution by a single methyl group at the 2′ position (VK3) improves the compound's ability to protect against cell death. Various other simple substituents at the 2′ and 3′ positions give the naphthoquinone structure the ability to prevent oxidative cell death at nanomolar concentrations (Table 1 and FIG. 16).

The nature of data set [2]: In vitro neurotoxicity without glutamate (MTS cell viability). To be noted: mouse, HT22 cells without glutamate, 24 hrs, MTS, concentration producing 50% toxicity, read-out: Toxicity TC50. Here is the method: as §1, §2
For data set [3], the system named is HT22 cells. Described as above. The note with it: for Safety Index TC50/PC50: HT22 cells; for CC50: HT22 cells without glutamate, 24 hrs, MTS, concentration producing 50% toxicity, read-out: Toxicity TC50. The procedure: as §1, §2
The mark [4] stands for this setting: HT-22, HT22 cells, 10 mM glutamate, 24 hrs, MTS, concentration producing 50% protection.
Setting [5] is: HT22 neuronal cells (without glutamate).

Structures are written as SMILES. Like-named read-outs stand apart in the source and are kept apart here.

As for `O=C(O)c1cc(=O)c2ccccc2o1`, in the data set on HT22 cells [1] (setting [4]), the EC50 was over 1000 nM. In addition, in data set [2] (setting [5]), the CC50 at 24 h was over 100000 nM.
The corresponding values for `O=C(O)c1coc2ccccc2c1=O` are over 1000 nM and over 100000 nM.
In the same order, the values of `O=C(Nc1ccccc1)c1cc(=O)c2ccccc2o1` [4-oxo-N-phenyl-4H-chromene-2-carboxamide] are over 1000 nM and over 100000 nM.
For the compound `O=C(Nc1ccccc1)c1coc2ccccc2c1=O` [4-oxo-N-phenyl-4H-chromene-3-carboxamide], the EC50 in the data set with HT22 cells [1] (setting [4]) was over 1000 nM. Besides, the CC50 at 24 h in data set [2] (setting [5]) was over 100000 nM.
In the case of `O=C1C=CC(=O)c2ccccc21` [Compound 1a, 1,4-naphthoquinone, reference compound], the EC50 in the data set with HT22 cells [1] (setting [4]) was 1540 nM. Also, in the data set with HT22 cells [3], the “Safety Index TC50/PC50” value is 12 and the CC50 turned out to be 19000 nM.
In the same order, the values of `CC1=C(C)C(=O)c2ccccc2C1=O` [Compound 1c] are 118 nM, 254 and 30000 nM.
As for `NC1=CC(=O)c2ccccc2C1=O` [Compound 1d, 2-amino-1,4-naphthoquinone], the EC50 in the data set on HT22 cells [1] (HT-22, 24 h) was determined as 61 nM. In the data set on HT22 cells [3], the “Safety Index TC50/PC50” value was determined as 803 and the CC50 came out at 49000 nM.
For the compound `CC1=C(N)C(=O)c2ccccc2C1=O` [Compound 1e, 2-amino-3-methyl-1,4-naphthoquinone], the EC50 in the data set with HT22 cells [1] (setting [4]) was 1740 nM. In addition, in the data set with HT22 cells [3], the “Safety Index TC50/PC50” value stood at 31 and the CC50 amounted to 54000 nM.
On to `O=C(O)C1=CC(=O)c2ccccc2C1=O` [Compound 1f], for which the EC50 in the data set with HT22 cells [1] (setting [4]) stood at 716 nM. Also, in the data set on HT22 cells [3], the “Safety Index TC50/PC50” value is reported as 140 and the CC50 is over 100000 nM.
Consider `O=C1C=C(O)C(=O)c2ccccc21` [Compound 1g], for which the EC50 with HT22 cells [1] (HT-22, 24 h) was found to be 1000 nM. In addition, in the data set with HT22 cells [3], the “Safety Index TC50/PC50” value came to 100 and the CC50 was over 100000 nM.
In the case of `CNC1=CC(=O)c2ccccc2C1=O` [Compound 2a, 2-(methylamino)naphthalene-1,4-dione], in the data set on HT22 cells [1] (setting [4]), the EC50 was found to be 1350 nM. In the data set with HT22 cells [3], the “Safety Index TC50/PC50” value is recorded as 74 and the CC50 was over 100000 nM.
Turning to `CCNC1=CC(=O)c2ccccc2C1=O` [Compound 2b, 2-(ethylamino)naphthalene-1,4-dione], in the data set with HT22 cells [1] (setting [4]), the EC50 was found to be 761 nM. Besides, in the data set on HT22 cells [3], the “Safety Index TC50/PC50” value was 106 and the CC50 came out at 81000 nM.
Turning to `CC(C)NC1=CC(=O)c2ccccc2C1=O` [Compound 2d, 2-(isopropylamino)naphthalene-1,4-dione], the EC50 in the data set on HT22 cells [1] (setting [4]) was determined as 1700 nM. Also, in the data set with HT22 cells [3], the “Safety Index TC50/PC50” value is reported as 27 and the CC50 was found to be 46000 nM.
In the same order, the values of `CCCNC1=CC(=O)c2ccccc2C1=O` [Compound 2e, 2-(propylamino)naphthalene-1,4-dione] are 328 nM, 91 and 30000 nM.
In the same order, the values of `O=C1C=C(NC2CCCC2)C(=O)c2ccccc21` [Compound 2f, 2-(cyclopentylamino)naphthalene-1,4-dione] are 409 nM, 108 and 44000 nM.
In the case of `O=C1C=C(NCC2CCCCC2)C(=O)c2ccccc21` [Compound 2g, 2-((cyclohexylmethyl)amino)naphthalene-1,4-dione], in the data set on HT22 cells [1] (setting [4]), the EC50 is 54 nM. Further, in the data set with HT22 cells [3], the “Safety Index TC50/PC50” value is on record as 1,852 and the CC50 is over 100000 nM.
For `O=C1C=C(Nc2ccccc2)C(=O)c2ccccc21` [Compound 2i, 2-(phenylamino)naphthalene-1,4-dione], the EC50 in the data set with HT22 cells [1] (HT-22, 24 h) amounted to 64 nM. In addition, in the data set with HT22 cells [3], the “Safety Index TC50/PC50” value is listed as 109 and the CC50 came to 7000 nM.
Turning to `CN(Cc1ccccc1)C1=CC(=O)c2ccccc2C1=O` [Compound 2k, 2-(benzyl(methyl)amino)naphthalene-1,4-dione], the EC50 with HT22 cells [1] (setting [4]) was 128 nM. For the same compound, in the data set on HT22 cells [3], the “Safety Index TC50/PC50” value was determined as 781 and the CC50 was over 100000 nM.
As for `O=C1C=C(NCCc2ccccc2)C(=O)c2ccccc21` [Compound 2l], the EC50 in the data set on HT22 cells [1] (setting [4]) amounted to 584 nM. Further, in the data set with HT22 cells [3], the “Safety Index TC50/PC50” value was 171 and the CC50 was over 100000 nM.
On to `O=C1C=C(NCc2ccncc2)C(=O)c2ccccc21` [Compound 2m, 2-((pyridin-4-ylmethyl)amino)naphthalene-1,4-dione], for which the EC50 in the data set with HT22 cells [1] (setting [4]) worked out at 72 nM. Also, in the data set with HT22 cells [3], the “Safety Index TC50/PC50” value is listed as 1,111 and the CC50 is 80000 nM.
In the same order, the values of `O=C1C=C(NCc2cccnc2)C(=O)c2ccccc21` [Compound 2n, 2-((pyridin-3-ylmethyl)amino)naphthalene-1,4-dione] are 215 nM, 172 and 37000 nM.
In the same order, the values of `O=C1C=C(NCc2ccccn2)C(=O)c2ccccc21` [Compound 2o, 2-((pyridin-2-ylmethyl)amino)naphthalene-1,4-dione] are 933 nM, 54 and 50000 nM.
In the same order, the values of `O=C1C=C(NCc2ccc(Cl)cc2)C(=O)c2ccccc21` [Compound 2p, 2-((4-chlorobenzyl)amino)naphthalene-1,4-dione] are 59 nM, 1,695 and over 100000 nM.
For the compound `Cc1ccc(CNC2=CC(=O)c3ccccc3C2=O)cc1` [Compound 2r, 2-((4-methylbenzyl)amino)naphthalene-1,4-dione], in the data set on HT22 cells [1] (HT-22, 24 h), the EC50 was determined as 66 nM. In addition, in the data set with HT22 cells [3], the “Safety Index TC50/PC50” value is on record as 1,515 and the CC50 is over 100000 nM.
Take `COc1ccc(CNC2=CC(=O)c3ccccc3C2=O)cc1` [Compound 2s, 2-((4-methoxybenzyl)amino)naphthalene-1,4-dione]: the EC50 in the data set on HT22 cells [1] (setting [4]) turned out to be 114 nM. In addition, in the data set with HT22 cells [3], the “Safety Index TC50/PC50” value came out at 877 and the CC50 is over 100000 nM.
In the case of `COC(=O)c1ccc(CNC2=CC(=O)c3ccccc3C2=O)cc1` [Compound 2t, methyl 4-(((1,4-dioxo-1,4-dihydronaphthalen-2-yl)amino)methyl)benzoate], in the data set with HT22 cells [1] (setting [4]), the EC50 is 232 nM. For the same compound, in the data set with HT22 cells [3], the “Safety Index TC50/PC50” value was found to be 431 and the CC50 is over 100000 nM.
With `O=C1C=C(NCc2cccc(C(F)(F)F)c2)C(=O)c2ccccc21` [Compound 2u, 2-((3-(trifluoromethyl)benzyl)amino)naphthalene-1,4-dione], in the data set with HT22 cells [1] (setting [4]), the EC50 turned out to be 45 nM. In the data set on HT22 cells [3], the “Safety Index TC50/PC50” value is 2,222 and the CC50 is over 100000 nM.
The corresponding values for `O=C1C=C(NCc2ccc(Cl)c(Cl)c2)C(=O)c2ccccc21` [Compound 2v, 2-((3,4-dichlorobenzyl)amino)naphthalene-1,4-dione] are 46 nM, 2,174 and over 100000 nM.
As for `CC(=O)NC1=CC(=O)c2ccccc2C1=O` [Compound 3a, N-(1,4-dioxo-1,4-dihydronaphthalen-2-yl)acetamide], the EC50 in the data set with HT22 cells [1] (setting [4]) amounted to 616 nM. Moreover, the CC50 at 24 h in data set [2] is over 100000 nM. Moreover, the “Safety Index TC50/PC50” value in the data set with HT22 cells [3] is recorded as 162.
For the compound `CCC(=O)NC1=CC(=O)c2ccccc2C1=O` [Compound 3b, N-(1,4-dioxo-1,4-dihydronaphthalen-2-yl)propionamide], in the data set on HT22 cells [1] (setting [4]), the EC50 is 760 nM. In addition, the CC50 at 24 h in data set [2] was determined as 80000 nM. Moreover, the “Safety Index TC50/PC50” value with HT22 cells [3] amounted to 105.
The corresponding values for `COC(=O)NC1=CC(=O)c2ccccc2C1=O` [Compound 3c, methyl(1,4-dioxo-1,4-dihydronaphthalen-2-yl)carbamate] are 69 nM, 5000 nM and 72.
